ChEMBL document CHEMBL5325477, “Biological Function of Pin1 in Vivo and Its Inhibitors for Preclinical Study: Early Development, Current Strategies, and Future Directions” (J Med Chem, 2023)
*1 amine or outer side, *2 acyl side, *3 side chain or, on linkers, in order; H or OH if unused. Where a SMILES comes first, the peptide text is derived from it. [ ]: non-standard residue; d: D form. The star is where a group is joined. Biotin = O=C1N[C@H]2[C@H](CS[C@H]2CCCCC(=O)*)N1; Phe(2-tBu) = CC(C)(C)c1ccccc1C[C@H](N)C(=O)O; X2 = CC(OP(=O)(O)O)[C@H](N[*:1])C(=O)[*:2]; X3 = O=C([C@H](Cc1cc2ccccc2s1)N[*:1])[*:2]; Bip = N[C@@H](Cc1ccc(-c2ccccc2)cc1)C(=O)O; 1Nal = N[C@@H](Cc1cccc2ccccc12)C(=O)O; 2Nal = N[C@@H](Cc1ccc2ccccc2c1)C(=O)O; Bta = N[C@@H](Cc1csc2ccccc12)C(=O)O; Cha = N[C@@H](CC1CCCCC1)C(=O)O; Pip = O=C(O)[C@@H]1CCCCN1; Abu = CC[C@H](N)C(=O)O

Key:
[1] = target: T1, Peptidyl-prolyl cis-trans isomerase NIMA-interacting 1 (Homo sapiens, UniProt Q13526); assay: Inhibition of Gst-tagged human Pin1 by Western blot analysis
[2] = target: T1, Peptidyl-prolyl cis-trans isomerase NIMA-interacting 1; assay: Inhibition of human Pin1 assessed as inhibition constant
[3] = target: T1, Peptidyl-prolyl cis-trans isomerase NIMA-interacting 1; assay: Inhibition of Pin1 (unknown origin)
[4] = target: T1, Peptidyl-prolyl cis-trans isomerase NIMA-interacting 1; assay: Inhibition of Gst-tagged human Pin1 assessed as inactivation constant measured after 14 hrs by FP binding assay
[5] = target: T1, Peptidyl-prolyl cis-trans isomerase NIMA-interacting 1; assay: Inhibition of Gst-tagged human Pin1 assessed as inhibition constant measured after 14 hrs by FP binding assay
[6] = target: T1, Peptidyl-prolyl cis-trans isomerase NIMA-interacting 1; assay: Inhibition of full length human Pin1 expressed in Escherichia coli assessed as dissociation constant by fluorescence anisotropy binding assay
[7] = target: T1, Peptidyl-prolyl cis-trans isomerase NIMA-interacting 1; assay: Inhibition of Gst-tagged human Pin1by FP assay
[8] = target: T1, Peptidyl-prolyl cis-trans isomerase NIMA-interacting 1; assay: Inhibition of Gst-tagged human Pin1 assessed as inhibition constant by Western blot analysis
[9] = Inhibition of human FKBP12 assessed as dissociation constant by Western blot analysis
[10] = target: T1, Peptidyl-prolyl cis-trans isomerase NIMA-interacting 1; assay: Inhibition of Pin1 (unknown origin) assessed as inhibition constant
[11] = target: T1, Peptidyl-prolyl cis-trans isomerase NIMA-interacting 1; assay: Inhibition of Pin1 (unknown origin) using Suc-Ala-Glu-Pro-Phe-pNA as substrate by spectrofluorometry assay
MDA-MB-231 = assay: Anticancer activity against human MDA-MB-231 cells assessed as cell growth inhibition measured after 48 hrs by cell count reagent SF based assay; assay type: functional; conditions: MDA-MB-231, 48 h
[12] = target: T1, Peptidyl-prolyl cis-trans isomerase NIMA-interacting 1
Description: Inhibition of human Pin1 using Suc-AEPF-NH-Np as substrate assessed as pseudo first order rate constant

[13] = target: T1, Peptidyl-prolyl cis-trans isomerase NIMA-interacting 1; assay: Inhibition of human Pin1 using Suc-AEPF-NH-Np as substrate

T1 sequence (Q13526 whole entry): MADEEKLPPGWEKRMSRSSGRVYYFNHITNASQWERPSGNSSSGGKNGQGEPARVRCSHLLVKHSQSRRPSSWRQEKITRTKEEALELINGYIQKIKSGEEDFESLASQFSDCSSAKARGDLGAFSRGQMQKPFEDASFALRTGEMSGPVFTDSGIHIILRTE
Description for Saccharomyces cerevisiae: Inhibition of yeast Ess1 using Suc-AEPF-NH-Np as substrate assessed as pseudo first order rate constant

Question: For CC(=O)N[C@@H](CCCCNC(=O)CCCC[C@@H]1SC[C@@H]2NC(=O)N[C@@H]21)C(=O)N[C@@H](C)C(=O)N[C@@H](C)C(=O)N[C@@H](Cc1ccc(-c2ccccc2)cc1)C(=O)N[C@H](C(=O)N1CCC[C@H]1C(=O)N[C@@H](Cc1ccc2ccccc2c1)C(=O)N[C@@H](CCC(N)=O)C(N)=O)C(C)OP(=O)(O)O (some centres undefined) (Ac-K(Biotin)AA[Bip][X2]P[2Nal]Q-NH2), which IC50 [1] is on record?
Answer: 18 µM

Question: Which IC50 [1] does the source give for CC(=O)N[C@@H](CCCCNC(=O)CCCC[C@@H]1SC[C@@H]2NC(=O)N[C@@H]21)C(=O)N[C@@H](C)C(=O)N[C@@H](C)C(=O)N[C@@H](Cc1cc2ccccc2s1)C(=O)N[C@H](C(=O)N1CCCC[C@H]1C(=O)N[C@@H](Cc1ccc2ccccc2c1)C(=O)N[C@@H](CCC(N)=O)C(N)=O)C(C)OP(=O)(O)O (some centres undefined) (Ac-K(Biotin)AA[X3][X2][Pip][2Nal]Q-NH2) here?
Answer: 0.21 µM

Question: For COc1ccc(F)cc1-c1cc(NC(=O)C[C@@H]2SC[C@H]3NC(=O)N[C@@H]23)c(O)c(C(=O)C2CCc3ccccc32)c1 (some centres undefined), which Ki [2] is on record?
Answer: 1.4 µM

Question: Which Ki [2] does the source give for COc1ccc(F)cc1C(=O)C1CCc2ccccc21 (centres undefined) here?
Answer: 8.7 µM

Question: For CC(=O)N[C@@H](CCCCNC(=O)CCCC[C@@H]1SC[C@@H]2NC(=O)N[C@@H]21)C(=O)N[C@@H](C)C(=O)N[C@@H](C)C(=O)N[C@@H](Cc1cc2ccccc2s1)C(=O)N[C@H](C(=O)N1CCC[C@H]1C(=O)N[C@@H](CC1CCCCC1)C(=O)N[C@@H](CCC(N)=O)C(N)=O)C(C)OP(=O)(O)O (some centres undefined) (Ac-K(Biotin)AA[X3][X2]P[Cha]Q-NH2), which IC50 [1] is on record?
Answer: 50 µM

Question: With Nc1nc(OCc2ccc(CNC(=O)C(F)(F)F)cc2)c2nc[nH]c2n1 as the compound, how does the IC50 [3] read?
Answer: 72.3 nM

Question: With CC(C)(C)CN(C(=O)CCl)C1CCS(=O)(=O)C1 (centres undefined) as the compound, how does the Kinact [4] read?
Answer: 0.3 10^-1/min

Question: What about the Ki [5] of the same compound?
Answer: 700 nM

Question: With C[C@@H]1NC(=O)c2cc3cc(c2)C(=O)NC[C@H](NC(=O)[C@@H](C)NC(=O)[C@@H](C)NC(=O)[C@H](CCCNC(=N)N)NC(=O)[C@H](Cc2ccc4ccccc4c2)NC(=O)[C@@H]2CCCCN2C(=O)[C@@H]([C@H](C)O)NC(=O)CNC1=O)C(=O)N[C@@H](Cc1ccccc1)C(=O)N[C@@H](Cc1ccc2ccccc2c1)C(=O)N[C@@H](CCCNC(=N)N)C(=O)N[C@@H](CCCNC(=N)N)C(=O)N[C@@H](CCCNC(=N)N)C(=O)N[C@@H](CCCNC(=N)N)C(=O)N[C@H](C(N)=O)CNC3=O as the compound, how does the Kd [6] read?
Answer: 620 nM

Question: With CC1=C(/C=C/C(C)=C/C=C/C(C)=C/C(=O)O)C(C)(C)CCC1 [TRETINOIN] as the compound, how does the IC50 [7] read?
Answer: 580 nM

Question: With COc1ccc(F)cc1C(=O)[C@]1(C)CCc2ccccc21 as the compound, how does the Ki [2] read?
Answer: 5.6 µM

Question: For CC(=O)N[C@@H](CCCCNC(=O)CCCC[C@@H]1SC[C@@H]2NC(=O)N[C@@H]21)C(=O)N[C@@H](C)C(=O)N[C@@H](C)C(=O)N[C@@H](Cc1ccccc1C(C)(C)C)C(=O)N[C@H](C(=O)N1CCC[C@H]1C(=O)N[C@@H](Cc1ccc2ccccc2c1)C(=O)N[C@@H](CCC(N)=O)C(N)=O)C(C)OP(=O)(O)O (some centres undefined) (Ac-K(Biotin)AA[Phe(2-tBu)][X2]P[2Nal]Q-NH2), which IC50 [1] is on record?
Answer: 30 µM

Question: With CC(=O)N[C@@H](CCCCNC(=O)CCCC[C@@H]1SC[C@@H]2NC(=O)N[C@@H]21)C(=O)N[C@@H](C)C(=O)N[C@@H](C)C(=O)N[C@@H](Cc1csc2ccccc12)C(=O)N[C@H](C(=O)N1CCCC[C@H]1C(=O)N[C@@H](Cc1cccc2ccccc12)C(=O)N[C@@H](CCC(N)=O)C(N)=O)C(C)OP(=O)(O)O (some centres undefined) (Ac-K(Biotin)AA[Bta][X2][Pip][1Nal]Q-NH2) as the compound, how does the Ki [8] read?
Answer: 1.2 nM

Question: Which Kd [9] does the source give for CO[C@H]1C[C@@H]2CC[C@@H](C)[C@@](O)(O2)C(=O)C(=O)N2CCCC[C@H]2C(=O)O[C@H]([C@H](C)C[C@@H]2CC[C@@H](O)[C@H](OC)C2)CC(=O)[C@H](C)/C=C(\C)[C@@H](O)[C@@H](OC)C(=O)[C@H](C)C[C@H](C)/C=C/C=C/C=C/1C [SIROLIMUS] here?
Answer: 0.2 nM

Question: For CC(=O)N[C@@H](Cc1ccccc1)C(=O)N[C@@H](Cc1ccccc1)C(=O)N[C@@H](/C=C1\CCC[C@@H]1C(=O)N[C@@H](CCCNC(=N)N)C(N)=O)COP(=O)(O)O, which Ki [10] is on record?
Answer: 1740 nM

Question: Which Ki [8] does the source give for CC[C@H](NC(C)=O)C(=O)N[C@H](C(=O)N1CCCC[C@H]1C(=O)N[C@@H](Cc1cccc2ccccc12)C(=O)N[C@@H](CCC(N)=O)C(N)=O)C(C)OP(=O)(O)O (some centres undefined) (Ac-[Abu][X2][Pip][1Nal]Q-NH2) here?
Answer: 18.3 nM

Question: Which IC50 [11] does the source give for CCOC(=O)C([Se]c1ccccc1)([Se]c1ccccc1)C(=O)OCC here?
Answer: 440 nM

Question: And the IC50 (MDA-MB-231)?
Answer: 11 µM

Question: For O=C1C=CC(=O)c2c(O)cccc21 [JUGLONE], which Kobs [12] is on record?
Answer: 1.5 10^-3/s

Question: And the Kobs (Saccharomyces cerevisiae)?
Answer: 0.53 10^-3/s

Question: And the IC50 [13]?
Answer: 5 µM

Question: With COc1ccccc1C(=O)C1CCc2ccccc21 (centres undefined) as the compound, how does the Ki [2] read?
Answer: 6.2 µM

Question: Which Ki [8] does the source give for CC(=O)N[C@@H](CCCCNC(=O)CCCC[C@@H]1SC[C@@H]2NC(=O)N[C@@H]21)C(=O)N[C@@H](C)C(=O)N[C@@H](C)C(=O)N[C@@H](Cc1csc2ccccc12)C(=O)N[C@H](C(=O)N1CCCC[C@H]1C(=O)N[C@@H](Cc1ccc2ccccc2c1)C(=O)N[C@@H](CCC(N)=O)C(N)=O)C(C)OP(=O)(O)O (some centres undefined) (Ac-K(Biotin)AA[Bta][X2][Pip][2Nal]Q-NH2) here?
Answer: 183 nM

Question: Which Ki [2] does the source give for COc1ccc(F)cc1C(=O)[C@@]1(C)CCc2ccccc21 here?
Answer: 51 µM
